Measured values as given in US20120149708A1, “MODULATORS OF VIRAL TRANSCRIPTION, AND METHODS AND COMPOSITIONS THEREWITH” (George Mason University, priority 2010, published 2012).

Key:
HIV-1 transcription = HIV-1 transcription inhibition in T-cells and monocytes; type: cell-based; conditions: T-cells versus monocytes
HIV-1 = conditions: T-cells, monocytes, and peripheral blood mononuclear cells; cited from earlier work
HIV-1 LTR-CAT reporter = experiment: CAT assay of Tat-mediated transactivation in HCT116 WT and Dicer-/- cells; type: cell-based; conditions: HCT116 WT (Dicer) versus Dicer-/-; 48 hrs; Flavopiridol, CR8#13, F07#13 100 nm, 9AA 1000 nm
Description: Six hours later, the transfected cells were treated with DMSO, Flavopirodol (100 nm), CR8#13 (100 nm), F07#13 (100 nm), and 9AA (1000 nm). Treated cells were incubated in complete DMEM for 48 hrs at 37° C. Cells were harvested and cell extracts were used for CAT analysis. One tenth the amount of HCT116 Dicer−/−extract compared to HCT116 WT was used for CAT analysis. […] The corresponding bar graphs in A and B show values that represent the percentage of conversion of the [14C] chloramphenicol substrate in the CAT assay.
Various cells lines were transfected with the HIV-1 LTRCAT plasmid and pc-Tat to initiate the LTR transcription, and subsequently subjected to various drug treatments. After 48 hrs, cells were lysed and CAT assays were performed as previously described (Guendel et al, 2009; Van Duyne et al, 2008; Easley et al, 2010).
To evaluate the role on microRNA machinery in inhibition of viral transcription activity, HCT116 colon carcinoma cell lines that either contained a WT Dicer (HCT116 WT) or lacked the Dicer protein (HCT116 Dicer-−/−) were first transfected with the HIV-1 LTR-CAT reporter construct. The HIV-1 LTR transcription was activated with pc-Tat and following incubation for 6 hours was treated with DMSO (negative control), Flavopiridol (positive control), CR8#13, F07#13, or 9AA.
Cells were harvested 48 hrs-post treatment and processed for CAT assays (FIGS. 3A and B). […] Based on this observation the inventors hypothesize that the microRNA machinery, Dicer and Drosha, plays an inhibitory role in HIV-1 transcription.

3′TAR and 5′TAR microRNA = experiment: Poly-A RT-PCR of TAR microRNA in TZM-bl cells with or without TSA; type: cell-based, HIV-1
Description: RNA was extracted 48 hrs-post drug treatment. 500 ng of RNA from the microRNA-enriched fraction was used to generate cDNA using the Quantimir kit (SBI) in order to poly adenylate small RNA species. RT reactions were performed followed by PCR in which a universal reverse primer was provided by the manufacturer. Specific microRNA forward primers are identical in sequence to the microRNA of interest. PCR products corresponding to the amplified microRNAs were separated in a 3.5% (w/v) agarose gel. The PCR products are at around 67 bp as compared with the Fermentas 1 kb DNA Plus Ladder. Increased levels of 3′TAR microRNA were produced post CR8#13 treatment.
For poly-A RT-PCR detection of microRNAs, 500 ng of RNA from the microRNA-enriched fraction was used to generate cDNA using the Quantimir kit (SBI) according to the manufacturer's protocol. Briefly, small RNA species are poly-adenylated and then reverse transcription reactions are performed with a company-provided RT primer. For PCR, a universal reverse primer is provided by the manufacturer. Specific microRNA forward primers are identical in sequence to the microRNA of interest. PCR products corresponding to the amplified microRNAs were separated in a 3.5% (w/v) agarose gel and quantified using the Kodak 1D software.
To determine whether the cdk inhibitors Flavopiridol, CR8, and CR8#13 increased levels of TAR microRNA in the TSA-treated and control TZM-bl cells total RNA was extracted from both TSA treated and control cells treated with Flavopiridol, CR8, and CR8#13 and processed for RT-PCR detection of microRNAs, specifically, for the presence of 3′TAR and 5′TAR molecules.

[1] = tested on: HIV-1 (pNL4.3) in promonocytic U937 cells; experiment: Reverse transcriptase assay of supernatants, pNL4.3 electroporated cells; type: cell-based; conditions: Flavopiridol 200 nm, CR8 100 nm, CR8#13 50 nm, 48 hours
Description: (§1) Jurkat T-cell and promonocytic U937 cells were electroporated with 5 μg pNL4.3 followed the next day by drug treatment of Flavopiridol (200 nm), CR8 (100 nm) or CR8#13 (50 nm). Cell supernatants were collected at 48 hours post drug treatment. Viral supernatants (10 μl) were incubated in a 96-well plate with reverse transcriptase (RT) reaction mixture overnight at 37° C., and 10 μl of the reaction mix was spotted on a DEAE Filtermat paper, washed with 5% (w/v) Na2HPO4 followed by water wash, and then dried completely. RT activity was measured in a Betaplate counter.
(§2) For electroporations, Jurkat and U937 cells were resuspended at 3 million cells in 250 μl of RPMI. Five microgram of pNL4-3 was then added to the cell suspension. Cells were pulsed a single time at 210V, 800 μF, and low resistance. Electroporated cells were immediately transferred to RPMI-1640 with L-glutamine and Penicillin/Streptomycin with 10% (v/v) FBS and plated in 6 well plates. Twenty four hours-post electroporation, cells were treated with drugs for additional 48 hrs and harvested for RT analysis. RT assays were performed as described in ((Guendel et al. 2009; Easley et al. 2010).
(§3) The present inventors examined whether Formula I, or Formula II compounds were effective inhibiting viral transcription in cell lines infected with an HIV-1 construct. Thus, Jurkat T-cells and promonocytic U937 cells were transfected with pNL4.3 and then treated with Flavopiridol, CR8 and CR8#13. Similar to monocytes, the Dicer levels are low to undetectable in promonocytic cells (FIG. 6) and was detectable only when these cells had differentiated into macrophages with PMA treatment.
(§4) Following drug treatment cell supernatants were collected and processed for exogenous reverse transcriptase (RT) levels.

[2] = tested on: HIV-1 (pNL4.3) in Jurkat T-cells; experiment: as above; type: cell-based; conditions: Flavopiridol 200 nm, CR8 100 nm, CR8#13 50 nm, 48 hours
Description: as §1, §2, §3, §4

[3] = tested on: ACH2 cells (HIV-1 infected); experiment: Cell viability by trypan blue exclusion, 48 hours; type: cell-based; conditions: Human immunodeficiency virus 1, ACH-2, 48 h, read-out: Inhibition Percentage ACH2, 50 nM, 48 hrs, HIV-1 infected
Description: (§5) TZM-bl cell lines were grown in Dulbecco's modified Eagle's medium supplemented with fetal bovine serum (FBS) (10%, v/v), 2 mM L-glutamine, and antibiotics (penicillin 100 U/ml, streptomycin […]) (cDMEM). HCT116 WT and HCT116 Dicer−/−cell lines were grown in McCoy's medium supplemented with FBS (10%, v/v), 2mM L-glutamine, and antibiotics (penicillin 100 U/ml, streptomycin […]). CEM, ACH2, Jurkat and U937 cells were grown in RPMI 1640 supplemented with FBS, L-glutamine, and antibiotics (penicillin 100 U/ml, streptomycin […]). All cell lines were maintained at 37° C. in 5% (v/v) CO2. […]
(§6) In brief, the inhibition studies were carried out as follows. HIV-1 infected cells ACH2, J1.1, OM10.1, U1 and uninfected CEM, Jurkat T-cells, and U937 were cultured in media. The appropriate inhibitor was added at a concentration of 10 μM. Cells were treated for 48 hours and cell viability was determined using trypan blue exclusion method. Results of such a screen for 19 inhibitors is shown in Table 1 where percent dead cells are indicated each drug tested.
(§7) Again HIV-1 infected and uninfected cells were treated with eighteen Formula I compounds at a drug concentration of 50 nm. Forty-eight hours after treatment, cytotoxicity was determined by trypan blue dye exclusion. Percent inhibition was calculated after obtaining the cell density for each well of the tissue culture plate at the end of 48 hrs.

[4] = tested on: Jurkat T-cells (uninfected); experiment: Cell viability by trypan blue exclusion, 48 hours; type: cell-based; conditions: Homo sapiens, Jurkat, 50 nM, 48 hrs, read-out: Inhibition Percentage Jurkat
Description: as §5, §6, §7

[5] = tested on: infected ACH2, J1.1, OM10.1, U1 cells; experiment: MTT assay, infected cells; type: cell-based; conditions: 50 nm and 10 μM
Description: (§8) FIGS. 1 and 2 show screening results of CR8 derivatives on Tat-dependent transcription HIV-1 LTR. […] TZM-bl cells were transfected with 1 ug of Tat and treated the next day with DMSO, or the indicated CR8 derivative compounds at 50 nm. 48 hrs-post drug treatment, luciferase activity of the firefly luciferase was measured with the BrightGlo Luciferase Assay and luminescence was read from a 96 well plate on an EG&G Berthold luminometer. Assays were performed in triplicate, average and standard deviations are shown.
(§9) Quantitative MTT assays were performed (FIG. 2), to further validate the cell growth inhibitory activity of certain Formula I compounds. In this study, cultured, infected ACH2, J1.1, OM10.1, U1 and uninfected CEM, Jurkat T-cells, and U937 cells were brought in contact with Formula I compounds CR8, MRT-033, and BJFP1154 (CR8#13). Cell growth inhibition study was performed at two different concentrations of the inventive compounds, a low concentration of 50 nm, and high concentration of 10 μM.

[6] = tested on: HIV-1 infected and uninfected cells; experiment: Classification of inhibitors by effect on viability of infected versus uninfected cells; type: cell-based; conditions: 50 nM; high, moderate or poor
Source text: The inhibitors were classified into three categories: high, moderate or poor, according to their effect on cellular viability in both HIV-1 infected and uninfected cells. Among the compounds tested in this study, CR8, a purine analog bearing a 2-pyridyl group para to the phenyl ring position 6 of the purine was the most promising drug candidate that killed HIV-1 infected cells, while having little or no effect on the death of uninfected cells.

[7] = tested on: uninfected CEM, Jurkat T-cells, and U937 cells; experiment: MTT assay, uninfected cells; type: cell-based; conditions: 50 nm and 10 μM
Description: as §8, §9

CEM cells (uninfected) = experiment: Cell viability by trypan blue exclusion, 48 hours; type: cell-based; conditions: 50 nM, 48 hrs
Description: (§10) TZM-bl cell lines were grown in Dulbecco's modified Eagle's medium supplemented with fetal bovine serum (FBS) (10%, v/v), 2 mM L-glutamine, and antibiotics (penicillin 100 U/ml, streptomycin […]) (cDMEM). HCT116 WT and HCT116 Dicer−/−cell lines were grown in McCoy's medium supplemented with FBS (10%, v/v), 2mM L-glutamine, and antibiotics (penicillin 100 U/ml, streptomycin […]). CEM, ACH2, Jurkat and U937 cells were grown in RPMI 1640 supplemented with FBS, L-glutamine, and antibiotics (penicillin 100 U/ml, streptomycin […]). All cell lines were maintained at 37° C. in 5% (v/v) CO2.
(§11) ACH2 cells are infected with HIV-1; TZM-bl cells contain a stably-integrated HIV-1 LTR-Luciferase reporter; CEM, Jurkat, and U937 cells are uninfected. Transfections were carried out using Attractene (Qiagen) lipid reagent. Cells were cultured to confluence and pelleted at 4° C. for 15 min at 3,000 rpm. The cell pellets were washed twice with 25 ml of phosphate-buffered saline (PBS) with Ca2+ and Mg2+ (Quality Biological) and centrifuged once more. Cell pellets were resuspended in lysis buffer (50 mM Tris-HCl, pH 7.5, 120 mM NaCl, 5 mM EDTA, 0.5%, v/v, NP-40, 50 mM NaF, 0.2 mM Na3VO4, 1 mM DTT, one complete protease cocktail tablet/50 ml (Roche) and incubated on ice for 20 min, with gentle vortexing every 5 min. Cell lysates were transferred to eppendorf tubes and were centrifuged at 10,000 rpm for 10 min. Supernatants were transferred to a fresh tube where protein concentrations were determined using Bio-Rad protein assay (Bio-Rad, Hercules, Calif.).
as §6, §7

U937 cells (uninfected) = experiment: Cell viability by trypan blue exclusion, 48 hours; type: cell-based; conditions: Homo sapiens, U-937, 50 nM, 48 hrs, read-out: Inhibition Percentage U937
Description: as §10, §11, §6, §7

[8] = tested on: OM10.1 cells (HIV-1 infected); experiment: Cell viability by trypan blue exclusion, 48 hours; type: cell-based; conditions: Human immunodeficiency virus 1; 50 nM, 48 hrs, HIV-1 infected; read-out: Inhibition Percentage OM10.1
Description: as §6, §7

[9] = tested on: J1.1 cells (HIV-1 infected); experiment: Cell viability by trypan blue exclusion, 48 hours; type: cell-based; conditions: 50 nM, 48 hrs, HIV-1 infected
Description: as §6, §7

[10] = tested on: U1 cells (HIV-1 infected); experiment: Cell viability by trypan blue exclusion, 48 hours; type: cell-based; conditions: 50 nM, 48 hrs, HIV-1 infected
Description: as §6, §7

Compound: CC[C@@H](CO)Nc1nc(NCc2ccc(-c3ccccn3)cc2)c2ncn(C(C)C)c2n1 [Cyc202]
- inhibition of transcription (HIV-1 transcription): effectively inhibited transcription in T-cells but not in monocytes
- inhibition of HIV-1 (IC50) (HIV-1): low IC50

Compound: CN1CC[C@H](c2c(O)cc(O)c3c(=O)cc(-c4ccccc4Cl)oc23)[C@H](O)C1 [Flavopiridol]
- inhibition of viral transcription (CAT) (HIV-1 LTR-CAT reporter): inhibited viral transcription significantly better in cells that contained Dicer
- 3′ and 5′ TAR microRNA amount (3′TAR and 5′TAR microRNA; TZM-bl cells treated with TSA for 7 days, then drug): higher amounts of both 3′ and 5′ TAR microRNA
- 3′ TAR microRNA amount (3′TAR and 5′TAR microRNA; non-TSA treated TZM-bl cells, Flavopiridol 50 nm, CR8 100 nm, CR8#13 100 nm): significantly increased amount of the 3′ TAR microRNA
- RT levels in supernatant [1]: able to decrease RT levels in both cell lines
- RT levels in supernatant [2]: able to decrease RT levels in both cell lines

Compound: CC[C@H](CO)Nc1nc(NCc2ccc(-c3ccccn3)cc2)n2ncc(C(C)C)c2n1.O=C(O)/C=C/C(=O)O [MRT-033, R-2-(8-isopropyl-4-(4-(pyridine-2-yl)benzylamino)pyrazolo[1,5-α]-1,3,5-triazine-2-ylamino)butan-1-ol]
- inhibition at 0.05 µM [3]: 90%
- inhibition at 0.05 µM [4]: 50%
- cell killing of infected cells (MTT) [5]: significant cell killing of infected cells over uninfected cells
- Selectivity [6]: High
- cell inhibition of uninfected cells (MTT) [7]: some cell inhibition activity of uninfected cells
- Inhibition Percentage CEM (CEM cells (uninfected)): + (~25%)
- inhibition at 0.05 µM (U937 cells (uninfected)): 90%
- inhibition at 0.05 µM [8]: 75%
- Inhibition Percentage J1.1 [9]: ++ (~50%)
- Inhibition Percentage U1 [10]: ++ (~50%)
